In the NIST ThermoML archive (doi:10.1016/j.fluid.2013.05.001):
Values joined by “and” are separate entries in the source; they are usually repeats but may differ in a detail not shown here. Equal values may be shown once.

Experiments:
[1] = refractive index (Na D-line) (dimensionless); conditions: 298.15 K; 85.9 kPa; Liquid; Standard Abbe refractometry
[2] = 298.15 K, 85.9 kPa, Liquid; for viscosity: Capillary tube (Ostwald / Ubbelohde) method; for mass density: Vibrating tube method
[3] = mn = molality of the nth substance listed, in mol/kg; conditions: 85.9 kPa, Liquid, Vibrating tube method

C1COCCO1 [1,4-dioxane]
Conditions | mass density [kg/m3] | refractive index | viscosity [mPa·s]
[1] | – | 1.4188 | –
[2] | 1027.93 | – | 1.158

CC(=O)Nc1ccc(OC(=O)c2ccccc2O)cc1 [salophen] + CC(=O)N(C)C
mass density, [3]
Conditions | m1 = 0.0106 | m1 = 0.0323 | m1 = 0.0497 | m1 = 0.0704 | m1 = 0.0899 | m1 = 0.1092 | m1 = 0.129 | m1 = 0.1492 | m1 = 0.1742
288.15 K | 946.52 kg/m3 and 937.32 kg/m3 | 938.87 kg/m3 and 948.07 kg/m3 | 940.11 kg/m3 and 949.32 kg/m3 | 941.6 kg/m3 and 950.78 kg/m3 | 942.99 kg/m3 and 952.18 kg/m3 | 944.36 kg/m3 and 953.53 kg/m3 | 945.78 kg/m3 and 954.93 kg/m3 | 947.22 kg/m3 and 956.35 kg/m3 | 949.07 kg/m3 and 958.13 kg/m3
308.15 K | 928.08 kg/m3 | 929.62 kg/m3 | 930.86 kg/m3 | 932.36 kg/m3 | 933.77 kg/m3 | 935.17 kg/m3 | 936.59 kg/m3 | 938.07 kg/m3 | 939.94 kg/m3
318.15 K | 918.85 kg/m3 | 920.4 kg/m3 | 921.65 kg/m3 | 923.15 kg/m3 | 924.58 kg/m3 | 925.99 kg/m3 | 927.42 kg/m3 | 928.91 kg/m3 | 930.75 kg/m3

CC(=O)N(C)C [N,N-dimethylethanamide]
Conditions | mass density [kg/m3] | refractive index | viscosity [mPa·s]
[1] | – | 1.436 | –
[2] | 936.57 | – | 0.961

CC(=O)Nc1ccc(OC(=O)c2ccccc2O)cc1 [salophen] + C[S+](C)[O-]
mass density, [3]
Conditions | m1 = 0.0099 | m1 = 0.0307 | m1 = 0.0493 | m1 = 0.07 | m1 = 0.0911 | m1 = 0.1086 | m1 = 0.1311 | m1 = 0.1483 | m1 = 0.1717
288.15 K | 1105.64 kg/m3 and 1095.61 kg/m3 | 1096.3 kg/m3 and 1106.33 kg/m3 | 1096.92 kg/m3 and 1106.94 kg/m3 | 1097.62 kg/m3 and 1107.62 kg/m3 | 1098.35 kg/m3 and 1108.33 kg/m3 | 1098.97 kg/m3 and 1108.91 kg/m3 | 1099.71 kg/m3 and 1109.66 kg/m3 | 1100.31 kg/m3 and 1110.22 kg/m3 | 1101.12 kg/m3 and 1111 kg/m3
308.15 K | 1085.58 kg/m3 | 1086.29 kg/m3 | 1086.93 kg/m3 | 1087.63 kg/m3 | 1088.38 kg/m3 | 1089 kg/m3 | 1089.77 kg/m3 | 1090.36 kg/m3 | 1091.18 kg/m3
318.15 K | 1075.56 kg/m3 | 1076.29 kg/m3 | 1076.95 kg/m3 | 1077.68 kg/m3 | 1078.44 kg/m3 | 1079.07 kg/m3 | 1079.87 kg/m3 | 1080.47 kg/m3 | 1081.32 kg/m3

CC(=O)Nc1ccc(OC(=O)c2ccccc2O)cc1 [salophen] + C1COCCO1
mass density, [3]
Conditions | m1 = 0.0106 | m1 = 0.0284 | m1 = 0.0495 | m1 = 0.0693 | m1 = 0.0855 | m1 = 0.1104 | m1 = 0.1313 | m1 = 0.1482 | m1 = 0.1707
288.15 K | 1039.84 kg/m3 and 1028.52 kg/m3 | 1029.51 kg/m3 and 1040.81 kg/m3 | 1030.66 kg/m3 and 1041.93 kg/m3 | 1031.72 kg/m3 and 1042.96 kg/m3 | 1032.57 kg/m3 and 1043.79 kg/m3 | 1033.86 kg/m3 and 1045.04 kg/m3 | 1034.92 kg/m3 and 1046.05 kg/m3 | 1035.78 kg/m3 and 1046.86 kg/m3 | 1036.89 kg/m3 and 1047.91 kg/m3
308.15 K | 1017.22 kg/m3 | 1018.23 kg/m3 | 1019.39 kg/m3 | 1020.48 kg/m3 | 1021.35 kg/m3 | 1022.68 kg/m3 | 1023.75 kg/m3 | 1024.62 kg/m3 | 1025.75 kg/m3
318.15 K | 1005.88 kg/m3 | 1006.9 kg/m3 | 1008.09 kg/m3 | 1009.19 kg/m3 | 1010.08 kg/m3 | 1011.41 kg/m3 | 1012.5 kg/m3 | 1013.37 kg/m3 | 1014.52 kg/m3

C[S+](C)[O-] [dimethyl sulfoxide]
Conditions | mass density [kg/m3] | refractive index | viscosity [mPa·s]
[1] | – | 1.4762 | –
[2] | 1095.29 | – | 1.867

CC(=O)Nc1ccc(OC(=O)c2ccccc2O)cc1 [salophen] + C1CCOC1
mass density, [3]
Conditions | m1 = 0.0103 | m1 = 0.0316 | m1 = 0.0496 | m1 = 0.0699 | m1 = 0.0908 | m1 = 0.1099 | m1 = 0.1293 | m1 = 0.1498 | m1 = 0.1704
288.15 K | 893.79 kg/m3 and 882.94 kg/m3 | 884.82 kg/m3 and 895.65 kg/m3 | 886.39 kg/m3 and 897.21 kg/m3 | 888.13 kg/m3 and 898.95 kg/m3 | 889.9 kg/m3 and 900.71 kg/m3 | 891.51 kg/m3 and 902.31 kg/m3 | 893.11 kg/m3 and 903.88 kg/m3 | 894.79 kg/m3 and 905.55 kg/m3 | 896.46 kg/m3 and 907.21 kg/m3
308.15 K | 871.92 kg/m3 | 873.82 kg/m3 | 875.41 kg/m3 | 877.17 kg/m3 | 878.97 kg/m3 | 880.59 kg/m3 | 882.21 kg/m3 | 883.9 kg/m3 | 885.6 kg/m3
318.15 K | 860.78 kg/m3 | 862.7 kg/m3 | 864.3 kg/m3 | 866.08 kg/m3 | 867.89 kg/m3 | 869.54 kg/m3 | 871.17 kg/m3 | 872.89 kg/m3 | 874.58 kg/m3

C1CCOC1 [tetrahydrofuran]
Conditions | mass density [kg/m3] | refractive index | viscosity [mPa·s]
[1] | – | 1.4047 | –
[2] | 882.02 | – | 0.448
